Measured values taken from patent US20040254129A1, “Use of ethoxylated phytosterols and phytostanols” (priority 2001, published 2004).
Where two headings read alike, the source gives them in different places. Marks after values point to notes of the source that are not given here. One block for each molecule: values may come before it.

How the values were obtained:
[1] = system: fresh blood taken from beagle dog (red blood cells); test: Determination of hemolysis in fresh blood; assay type: cell-based; conditions: for Hemolytic activity (concentration range at which 5% hemolysis is obtained): surfactant concentration in blood/surfactant mixture, read from hemolysis curves
Method: 100 μl surfactant solution was added to 400 μl fresh blood taken from beagle dog. The blood and surfactant mixture was gently agitated for 2-3 seconds immediately after addition, followed by 10 mins incubation at 37° C. under gentle shaking. […] During centrifugation the sample separated into a sediment of red blood cells and a supernatant. […] Each determination was carried out for triplicate samples.
After 30 minutes 400 μl of the so-obtained solution was mixed with 100 μl normal saline. From the resulting solution, a small fraction was removed and analysed with respect to hemoglobin content with a Cobas Bio spectrophotometer.
The degree of hemolysis was calculated according to the following expression [formula]
The position of the hemolysis curve along the concentration axis in such a diagram determines the hemolytic activity. The more hemolytic a surfactant is, the lower concentration is required to obtain a certain degree of hemolysis. In order to quantify the hemolytic activity, the concentration was considered at which 5% hemolysis was obtained. The higher the concentration, the lower the activity. The procedure was repeated at least once for all surfactants.

[2] = Solubilization of felodipine by surfactants (14C scintillation detection); assay type: physicochemical; conditions: for solubility of felodipine on addition of the surfactant (in words): 0.9% (w/w) NaCl in water
Method: Both ^14C-labelled and non-labelled felodipine were provided by AstraZeneca AB. In order to obtain a molecularly homogeneous mixture of labelled and non-labelled felodipine, both components were dissolved in chloroform. After a clear solution was obtained, the solvent was evaporated. […] The surfactants were dissolved and diluted in 0.9% (w/w) NaCl in water. The felodipine was added in excess and the samples were allowed to equilibrate for over 48 hours in room temperature under thorough shaking. The samples were filtered using 4 mm Durapore filters (0.45 μm, Millipore) to remove undissolved felodipine. […] From each sample 0.5 ml solution was withdrawn and mixed with 3.5 ml scintillation liquid. The concentration of dissolved felodipine was determined by means of scintillation detection using a Beckman LS6500 scintillation counter.
The solubilization capacity of each surfactant with respect to felodipine was determined by considering the slope of the solubilization curves, α. The slope of each curve, α, describes the additional amount of felodipine that can be dissolved in a solution when a small amount of surfactant is added, which is also the definition of the solubilization capacity. [formula]
The solubilization capacity was calculated by fitting a linear expression to the experimental data and extracting the slope, α.

[3] = Solubilization of griseofulvin by surfactants (UV absorption spectrometry); assay type: physicochemical
Method: For each of the surfactants, four samples with different surfactant concentrations were prepared. The surfactants were dissolved and diluted in pure and filtered water. Griseofulvin was added in excess and the samples were allowed to equilibrate for 4 hours at 45° C. followed by 20 hours at room temperature. The samples were thoroughly shaken during the whole equilibration time. The samples were subsequently centrifuged to remove undissolved griseofulvin. The concentration of dissolved griseofulvin was determined by UV absorption spectrometry. The absorbance was recorded at the wavelength for maximum absorption, λmax=295 nm.
In line with the definition in Example 8, the solubilization capacity becomes [formula]

[4] = system: erythrocytes extracted from dog blood
Method: (§1) Erythrocytes were extracted from dog blood by a centrifugation—resuspension procedure. The fresh blood was subjected to mild centrifugation at 2000×g for 10 mins. The excessive blood plasma was removed and the so-obtained sediment of erythrocytes was resuspended in normal saline (0.9% NaCl in water). This procedure was repeated twice. The final volume of the erythrocyte suspension was equal to the initial volume of the fresh blood. Surfactant solutions with varying concentration of the surfactant were prepared by dissolving and diluting appropriate amounts of surfactants in 0.9% (w/w) NaCl in water. 100 μl surfactant solution was added to 400 μl erythrocyte suspension. The samples were vigorously agitated for 5 seconds immediately after addition, followed by 20 mins incubation at 37° C. under gentle shaking. The samples were centrifuged for 6 mins at 3000 g and 5° C. The centrifugation separated the samples into sediments of intact erythrocytes and a supernatant. A small fraction of the supernatant was removed and analysed with respect to hemoglobin content. The hemoglobin was allowed to undergo a chemical reaction with H2O2, aminophenazon, and phenol. […] From this concentration, the initial concentration of hemoglobin was calculated. Each determination was carried out for triplicate samples.
(§2) Negative control samples, i.e. samples for the determination of background lysis, were prepared by adding 100 μl normal saline to 400 μl erythrocyte suspension. These samples were treated and analysed in the same way as described above.
(§3) Positive control samples, i.e. samples for the determination of total hemoglobin content, were prepared by diluting the erythrocyte suspension 500 times with distilled water. The dilution caused complete lysis of all erythrocytes, and the concentration of released hemoglobin could be determined as described above.
(§4) The degree of lysis was calculated according to the following expression [formula]
(§5) where % L is the degree of lysis in %, [Hb] the concentration of released hemoglobin in the mixture of erythrocytes and surfactant, [Hb]0 the concentration of released hemoglobin in the negative control (basal hemolysis), and [Hb]tot the total concentration of hemoglobin in the mixtures of erythrocytes and surfactant.
(§6) The degree of lysis was determined as a function of the surfactant concentration in the mixture of erythrocytes and surfactant.
(§7) The activity of each surfactant to cause lysis of erythrocytes is indicated by the position of the lysis curve in the diagram. For a surfactant with low activity, a high concentration is required to obtain a certain degree of lysis. Here, the activity is quantified by considering the concentration at which 10% lysis is obtained. The higher the concentration, the lower the activity.

[5] = no surfactant; cited from earlier work
[6] = system: erythrocytes extracted from dog blood; test: Determination of the lysis of erythrocytes
Method: as §1, §2, §3, §4, §5, §6, §7

[7] = surfactant 0.00 mM (no surfactant) in 0.9% (w/w) NaCl

solubility of felodipine on addition of the surfactant (in words) [2]: increased
Felodipine concentration (solubility of felodipine) [2, 7]: <0.07 ^† mM
Felodipine concentration (solubility of felodipine) ([2]; surfactant 10.42 mM in 0.9% (w/w) NaCl): 1.7070 mM
Felodipine concentration (solubility of felodipine) ([2]; surfactant 20.84 mM in 0.9% (w/w) NaCl): 3.4064 mM
Felodipine concentration (solubility of felodipine) ([2]; surfactant 31.26 mM in 0.9% (w/w) NaCl): 5.1085 mM
Felodipine concentration (solubility of felodipine) ([2]; surfactant 41.680 mM in 0.9% (w/w) NaCl): 6.8927 mM
Molecule: polyoxyethylene(23) lauryl ether [Brij ® 35]
degree of hemolysis, % H ([1]; surfactant 8.40 mM in blood/surfactant mixture): 0.87%
degree of hemolysis, % H ([1]; surfactant 16.80 mM in blood/surfactant mixture): 2.37%
degree of hemolysis, % H ([1]; surfactant 25.20 mM in blood/surfactant mixture): 5.04%
degree of hemolysis, % H ([1]; surfactant 33.60 mM in blood/surfactant mixture): 7.44%
degree of hemolysis, % H ([1]; surfactant 42.00 mM in blood/surfactant mixture): 10.85%
Hemolytic activity (concentration range at which 5% hemolysis is obtained) [1]: 25 mM

Griseofulvin concentration (solubility of griseofulvin) ([3]; surfactant 117.6 mM in water): 323.2 µM
Griseofulvin concentration (solubility of griseofulvin) ([3]; surfactant 235.1 mM in water): 442.5 µM
Griseofulvin concentration (solubility of griseofulvin) ([3]; surfactant 587.8 mM in water): 445.1 µM
Griseofulvin concentration (solubility of griseofulvin) ([3]; surfactant 1175.7 mM in water): 432 µM
Molecule: CCCCCCCCO[C@@H]1O[C@H](CO)[C@@H](O[C@H]2O[C@H](CO)[C@@H](O)[C@H](O)[C@H]2O)[C@H](O)[C@H]1O [Octyl maltoside, n-octyl-β-D-maltopyranoside]

solubility of felodipine on addition of the surfactant (in words) [2]: increased
Felodipine concentration (solubility of felodipine) [2, 7]: <0.07 ^† mM
Felodipine concentration (solubility of felodipine) ([2]; surfactant 10.89 mM in 0.9% (w/w) NaCl): 2.64 mM
Felodipine concentration (solubility of felodipine) ([2]; surfactant 21.79 mM in 0.9% (w/w) NaCl): 5.22 mM
Felodipine concentration (solubility of felodipine) ([2]; surfactant 32.68 mM in 0.9% (w/w) NaCl): 7.76 mM
Felodipine concentration (solubility of felodipine) ([2]; surfactant 43.57 mM in 0.9% (w/w) NaCl): 10.25 mM
Molecule: polyoxyethylene(20) stearyl ether [Brij ® 78]
degree of hemolysis, % H ([1]; surfactant 3.48 mM in blood/surfactant mixture): 1.09%
degree of hemolysis, % H ([1]; surfactant 3.65 mM in blood/surfactant mixture): 1.97%
degree of hemolysis, % H ([1]; surfactant 3.83 mM in blood/surfactant mixture): 2.47%
degree of hemolysis, % H ([1]; surfactant 4.00 mM in blood/surfactant mixture): 3.72%
degree of hemolysis, % H ([1]; surfactant 4.17 mM in blood/surfactant mixture): 6.14%
degree of hemolysis, % H ([1]; surfactant 4.35 mM in blood/surfactant mixture): 9.21%
Hemolytic activity (concentration range at which 5% hemolysis is obtained) [1]: 4 mM

Molecule: CCCCCCCCCCCCO[C@@H]1O[C@H](CO)[C@@H](O[C@H]2O[C@H](CO)[C@@H](O)[C@H](O)[C@H]2O)[C@H](O)[C@H]1O [Dodecyl maltoside, n-dodecyl-β-D-maltopyranoside]
degree of hemolysis, % H ([1]; surfactant 0.098 mM in blood/surfactant mixture): 0.456%
degree of hemolysis, % H ([1]; surfactant 0.196 mM in blood/surfactant mixture): 1.047%
degree of hemolysis, % H ([1]; surfactant 0.392 mM in blood/surfactant mixture): 2.987%
degree of hemolysis, % H ([1]; surfactant 0.588 mM in blood/surfactant mixture): 4.772%
degree of hemolysis, % H ([1]; surfactant 0.784 mM in blood/surfactant mixture): 7.157%
degree of hemolysis, % H ([1]; surfactant 0.980 mM in blood/surfactant mixture): 7.563%
degree of hemolysis, % H ([1]; surfactant 1.177 mM in blood/surfactant mixture): 11.208%
Hemolytic activity (concentration range at which 5% hemolysis is obtained) [1]: 0.6 mM
Activity of lysis (concentration at which 10% lysis is obtained) [4]: 0.8 mM
Griseofulvin concentration (solubility of griseofulvin) ([3]; surfactant 0.811 mM in water): 10.1 µM
Griseofulvin concentration (solubility of griseofulvin) ([3]; surfactant 1.622 mM in water): 22.1 µM
Griseofulvin concentration (solubility of griseofulvin) ([3]; surfactant 4.054 mM in water): 58.2 µM
Griseofulvin concentration (solubility of griseofulvin) ([3]; surfactant 8.108 mM in water): 115.7 µM

Molecule: COC1=CC(=O)C[C@@H](C)[C@]12Oc1c(Cl)c(OC)cc(OC)c1C2=O [griseofulvin, Griseofulvin]
solubility of griseofulvin in pure water [5]: 23 µM

Griseofulvin concentration (solubility of griseofulvin) ([3]; surfactant 2.804 mM in water): 23.4 µM
Griseofulvin concentration (solubility of griseofulvin) ([3]; surfactant 5.608 mM in water): 51 µM
Griseofulvin concentration (solubility of griseofulvin) ([3]; surfactant 14.019 mM in water): 132.9 µM
Griseofulvin concentration (solubility of griseofulvin) ([3]; surfactant 28.038 mM in water): 272 µM
degree of lysis of erythrocytes, % L ([6]; surfactant 0.20 mM in mixture of erythrocytes and surfactant): 0.31%
degree of lysis of erythrocytes, % L ([6]; surfactant 0.40 mM in mixture of erythrocytes and surfactant): 1.96%
degree of lysis of erythrocytes, % L ([6]; surfactant 0.80 mM in mixture of erythrocytes and surfactant): 7.60%
degree of lysis of erythrocytes, % L ([6]; surfactant 1.00 mM in mixture of erythrocytes and surfactant): 9.67%
degree of lysis of erythrocytes, % L ([6]; surfactant 2.01 mM in mixture of erythrocytes and surfactant): 15.11%
degree of lysis of erythrocytes, % L ([6]; surfactant 2.50 mM in mixture of erythrocytes and surfactant): 20.28%
Activity of lysis (concentration at which 10% lysis is obtained) ([6]; surfactant concentration in mixture of erythrocytes and surfactant, read from lysis curves): 1.1 mM
Molecule: OC[C@H]1O[C@H](O[C@H]2[C@H](O)[C@@H](O)[C@H](OCCCCCCC3CCCCC3)O[C@@H]2CO)[C@H](O)[C@@H](O)[C@@H]1O [Cyclohexyl-hexyl maltoside, cyclohexyl-n-hexyl-β-D-maltopyranoside]
